Laboratory results: patent US20250034216A1, “STEREOSELECTIVE COVALENT LIGANDS FOR ONCOGENIC AND IMMUNOLOGICAL PROTEINS” (The Scripps Research Institute, priority 2021, published 2025)

How the values were obtained:
Experiment in all cases: IA-DTB cysteine engagement
Format in all cases: binding
Conditions in all cases: 22Rv1 cells, 20 μM probe, 1 h, relative to DMSO
HARS2_C173 = target: T1, HARS2_C173 (Homo sapiens, UniProt P49590)
T1 construct: endogenous in cells; host or cells: 22Rv1
T1 sequence (P49590 34-506): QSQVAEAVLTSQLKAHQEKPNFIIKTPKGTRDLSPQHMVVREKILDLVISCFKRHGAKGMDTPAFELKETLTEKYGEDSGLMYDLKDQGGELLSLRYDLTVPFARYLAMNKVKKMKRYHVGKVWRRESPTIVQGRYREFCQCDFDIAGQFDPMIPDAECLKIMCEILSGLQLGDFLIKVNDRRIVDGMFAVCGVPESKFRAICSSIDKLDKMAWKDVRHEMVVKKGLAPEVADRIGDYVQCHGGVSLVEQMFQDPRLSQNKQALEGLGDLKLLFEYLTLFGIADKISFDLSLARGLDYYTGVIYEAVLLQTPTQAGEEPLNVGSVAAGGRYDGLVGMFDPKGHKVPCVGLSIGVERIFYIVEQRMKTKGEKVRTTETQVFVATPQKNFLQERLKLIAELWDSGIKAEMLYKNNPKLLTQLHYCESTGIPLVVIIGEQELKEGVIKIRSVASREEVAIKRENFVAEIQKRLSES
Summary of the method: (§1)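 In-situ probe treatment of cells; lysate 2 mg/mL, IA-DTB 1 h RT; MeOH/CHCl3 precipitation, DTT/iodoacetamide, trypsin; streptavidin enrichment; TMT labeling, high-pH fractionation. Ratio = TMT reporter intensity / mean DMSO channels, median-normalized.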

NUP205_C224 = target: T2, NUP205_C224 (Homo sapiens, UniProt Q92621)
T2 construct: endogenous in cells; host or cells: 22Rv1
Summary of the method: as §1

IFT43_C58 = target: T3, IFT43_C58 (Homo sapiens, UniProt Q96FT9)
T3 construct: endogenous in cells; host or cells: 22Rv1
T3 sequence (Q96FT9 1-208): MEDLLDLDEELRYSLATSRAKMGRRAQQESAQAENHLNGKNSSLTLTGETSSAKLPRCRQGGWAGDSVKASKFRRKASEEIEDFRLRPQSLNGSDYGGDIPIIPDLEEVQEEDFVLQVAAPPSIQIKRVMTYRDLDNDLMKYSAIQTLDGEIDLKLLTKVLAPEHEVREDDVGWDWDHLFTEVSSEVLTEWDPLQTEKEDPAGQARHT
Summary of the method: as §1

T2 sequence (Q92621 whole entry): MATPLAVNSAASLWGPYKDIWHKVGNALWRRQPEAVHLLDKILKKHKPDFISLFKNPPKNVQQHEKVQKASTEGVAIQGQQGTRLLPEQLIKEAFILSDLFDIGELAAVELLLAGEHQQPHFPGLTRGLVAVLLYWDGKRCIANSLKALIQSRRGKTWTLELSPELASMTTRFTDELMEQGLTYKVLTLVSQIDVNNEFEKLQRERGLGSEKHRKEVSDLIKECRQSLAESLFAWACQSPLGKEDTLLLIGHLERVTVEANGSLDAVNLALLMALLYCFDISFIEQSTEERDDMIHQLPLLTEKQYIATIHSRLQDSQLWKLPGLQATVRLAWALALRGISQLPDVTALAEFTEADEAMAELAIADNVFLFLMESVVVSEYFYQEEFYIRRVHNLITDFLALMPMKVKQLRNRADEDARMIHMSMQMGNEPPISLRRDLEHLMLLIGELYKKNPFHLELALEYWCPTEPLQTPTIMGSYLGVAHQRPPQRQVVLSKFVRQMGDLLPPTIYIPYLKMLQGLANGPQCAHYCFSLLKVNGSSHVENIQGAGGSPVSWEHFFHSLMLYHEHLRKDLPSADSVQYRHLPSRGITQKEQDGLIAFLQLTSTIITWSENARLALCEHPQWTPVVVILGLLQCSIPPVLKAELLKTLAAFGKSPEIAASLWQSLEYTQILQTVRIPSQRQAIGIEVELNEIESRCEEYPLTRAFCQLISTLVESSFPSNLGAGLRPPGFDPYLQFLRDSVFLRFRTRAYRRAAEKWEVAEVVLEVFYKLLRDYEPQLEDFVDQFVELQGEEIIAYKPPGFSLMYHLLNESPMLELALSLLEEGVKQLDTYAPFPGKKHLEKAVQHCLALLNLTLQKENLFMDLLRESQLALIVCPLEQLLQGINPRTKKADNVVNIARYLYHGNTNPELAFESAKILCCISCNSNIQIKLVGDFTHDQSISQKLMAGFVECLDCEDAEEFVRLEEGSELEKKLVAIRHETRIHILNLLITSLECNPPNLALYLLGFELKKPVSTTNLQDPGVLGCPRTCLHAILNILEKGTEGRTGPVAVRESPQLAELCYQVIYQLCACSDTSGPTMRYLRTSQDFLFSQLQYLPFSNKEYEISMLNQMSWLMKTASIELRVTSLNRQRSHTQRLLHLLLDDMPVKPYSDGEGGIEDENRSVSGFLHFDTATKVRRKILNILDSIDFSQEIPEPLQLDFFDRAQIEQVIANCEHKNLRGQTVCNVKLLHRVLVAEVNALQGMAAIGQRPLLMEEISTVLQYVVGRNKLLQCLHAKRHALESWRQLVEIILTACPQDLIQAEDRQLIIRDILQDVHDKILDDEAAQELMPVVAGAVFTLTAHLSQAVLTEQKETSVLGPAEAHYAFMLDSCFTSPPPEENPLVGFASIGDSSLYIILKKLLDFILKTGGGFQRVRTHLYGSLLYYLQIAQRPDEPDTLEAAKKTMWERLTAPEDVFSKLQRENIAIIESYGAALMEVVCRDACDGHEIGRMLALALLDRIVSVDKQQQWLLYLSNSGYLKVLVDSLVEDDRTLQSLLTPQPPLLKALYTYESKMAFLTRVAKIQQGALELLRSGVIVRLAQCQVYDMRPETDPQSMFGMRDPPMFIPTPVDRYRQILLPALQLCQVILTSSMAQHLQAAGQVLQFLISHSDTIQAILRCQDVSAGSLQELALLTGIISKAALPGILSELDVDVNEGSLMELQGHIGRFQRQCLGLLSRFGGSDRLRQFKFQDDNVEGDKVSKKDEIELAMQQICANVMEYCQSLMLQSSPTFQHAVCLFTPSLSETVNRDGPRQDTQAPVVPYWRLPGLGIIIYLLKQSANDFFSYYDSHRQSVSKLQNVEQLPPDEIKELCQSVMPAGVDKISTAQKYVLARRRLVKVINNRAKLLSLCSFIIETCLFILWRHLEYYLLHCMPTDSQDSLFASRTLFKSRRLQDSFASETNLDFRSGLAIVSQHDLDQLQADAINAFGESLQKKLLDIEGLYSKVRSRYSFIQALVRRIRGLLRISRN

Row | Structure (SMILES) | % engagement HARS2_C173 (HARS2_C173) [%] | % engagement NUP205_C224 (NUP205_C224) [%] | % engagement IFT43_C58 (IFT43_C58) [%]
1 | C=CC(=O)N1C[C@@H](c2ccc(Br)cc2)[C@H]1C(=O)Nc1cccc2cccnc12 [MY-1A, (2S,3R)-1-acryloyl-3-(4-bromophenyl)-N-(quinolin-8-yl)azetidine-2-carboxamide] | 84.75 | 28.5 | 28.5
2 | C=CC(=O)N1C[C@H](c2ccc(Br)cc2)[C@@H]1C(=O)Nc1cccc2cccnc12 [MY-1B, (2R,3S)-1-acryloyl-3-(4-bromophenyl)-N-(quinolin-8-yl)azetidine-2-carboxamide] | 63.75 | 6 | −17
3 | C=CC(=O)N1C[C@H](c2ccc(Br)cc2)[C@H]1C(=O)Nc1cccc2cccnc12 [MY-3A, (2S,3S)-1-acryloyl-3-(4-bromophenyl)-N-(quinolin-8-yl)azetidine-2-carboxamide] | 35.25 | 100 | 17
4 | C=CC(=O)N1C[C@H](c2ccc(Br)cc2)[C@H]1C(=O)Nc1cccc2cccnc12 [MY-3B, (2S,3S)-1-acryloyl-3-(4-bromophenyl)-N-(quinolin-8-yl)azetidine-2-carboxamide] | 35.75 | 30.5 | 71.5
